Where two headings read alike, the source gives them in different places.
Tests used:
MCF7 cells [1] = assay: Cell viability (SRB) assay, MCF7 2D-monolayers; assay type: cell-based, human; settings: 3 days, 5 to 20 μM
Method: (§1) Cell Viability Assay: The Sulphorhodamine (SRB) assay is based on the measurement of cellular protein content. After treatment for 72 h in 96-well plates, (8,000 cells/well), cells were fixed with 10% trichloroacetic acid (TCA) for 1 hour in the cold room, and were dried overnight at room temperature. Then, cells were incubated with SRB for 15 min, washed twice with 1% acetic acid, and air dried for at least 1 hour. Finally, the protein-bound dye was dissolved in a 10 mM Tris, pH 8.8, solution and read using the plate reader at 540-nm.

[2] = system: normal human fibroblasts (hTERT-BJ1); assay: Cell viability (SRB) assay, normal fibroblasts 2D-monolayers; assay type: cell-based; settings: hTERT-BJ1 2D-monolayers, 3 days, 5 to 20 μM
Method: as §1

MCF7 cells [3] = assay: Cell proliferation, xCELLigence RTCA; assay type: cell-based, human; settings: MCF7 2D-monolayers, relative to control (no treatment)
Method: Cell Proliferation: Briefly, MCF7 cells or hTERT-BJ1 fibroblasts were seeded in each well (10,000 cells/well) and employed to assess the efficacy of Doxycycline and Doxy-Myr, using RTCA (real-time cell analysis), via the measurement of cell-induced electrical impedance plate (Acea Biosciences Inc.). This approach allows the quantification of the onset and kinetics of the cellular response. Experiments were repeated several times independently, using quadruplicate samples for each condition.

E. coli (ATCC 25922) = assay: Bacterial growth assay (broth microdilution, resazurin); assay type: cell-based, Escherichia coli; settings: Gram-negative, 100-0.78 μM
Method: (§2) Bacterial Growth Assays: Briefly, antibiotic activity was assessed using standard assay systems. The antibiotic activity of Doxycycline analogues was determined experimentally, using Resazurin (R7017; Sigma-Aldrich, Inc.) as a probe, in a 96-well plate format, using standard strains of E. coli and S. aureus. The minimum inhibitory concentration (MIC) for the studied compounds was determined using the broth microdilution method, the reference susceptibility test for rapidly growing aerobic or facultative microorganism. The assays were performed according to the Clinical and Laboratory Standards Institute (CLSI) guidelines. The test compounds and positive control (doxycycline, Sigma Aldrich #D1822) stock solutions were prepared at 25 mM in DMSO and serially diluted (2-fold dilution from 200-1.56 tiM) in cation adjusted Mueller Hinton Broth (MHB, Sigma Aldrich #90922) in 96 well transparent plates (VWR #734-2781) into a final volume of 50 μL/well. Staphylococcus aureus (ATCC 29213) and E. coli (ATCC 25922) cultures were grown overnight at 37° C. in Mueller Hinton Agar (MHA, Sigma Aldrich #70191). A single colony of each strain was then grown overnight at 37° C. in MHB until OD600˜0.6-0.8 and further diluted into MHB to a concentration of […] colony forming units (CFU)/mL, which was equivalent to an OD600˜0.01. Then, 50 μL of the diluted inoculums was transferred to the wells of the previously prepared 96-well plates containing the test compounds, negative control (1% DMSO in MHB) and positive control (doxycycline). Final wells volume was 100 μL, final concentrations for the testing compounds were between 100-0.78 μM and final microorganism concentration was 5×10^5 CFU/mL. Subsequently, 10 uL of one negative control well was plated in a petri dish containing MHA to check CFU and the purity of the cultures. The plates were incubated at 37° C. for 24 h after which 20 tit of resazurin solution (0.2 mg/mL) was added to the wells followed by 1 h30 min incubation at 37° C. The OD570 and OD600 were measured in a microplate reader (BMG FLUOstar Omega). […] MIC values were determined by three independent experiments.

[4] = system: Staphylococcus aureus (ATCC 29213); assay: as above; assay type: cell-based; settings: S. aureus, Gram-positive, 100-0.78 μM
Method: as §2

chick embryo = assay: CAM assay, embryo tolerability / toxicity; assay type: in vivo; settings: for Dead / Alive: number of embryos
Method: a) Preparation of Chicken Embryos. […] At that moment (E9), the chorioallantoic membrane (CAM) was dropped down by drilling a small hole through the eggshell into the air sac, and a 1 cm^2 window was cut in the eggshell above the CAM.
e) Embryo Tolerability Assay. Before each administration, the treatment tolerability was evaluated by scoring the number of dead embryos.

[5] = system: CSC burden in early breast cancer patients; settings: oral 200 mg/day for 14 days; cited from earlier work
MCF7 CSCs = assay: 3D-mammosphere formation assay; assay type: cell-based, human; settings: for IC50: 5 days, non-adherent conditions, read-out: IC50 for inhibiting 3D anchorage-independent propagation (mammosphere formation)
Method: For the 3D-Mammosphere Assay, a single cell suspension of MCF7 cells was prepared using enzymatic (lx Trypsin-EDTA, Sigma Aldrich) and manual disaggregation (25-gauge needle). Cells were then plated at a density of 500 cells/cm^2 in mammosphere medium (DMEM-F12/B27/EGF (20-ng/ml)/PenStrep) in non-adherent conditions, in culture dishes coated with (2-hydroxyethylmethacrylate) (poly-HEMA, Sigma). Cells were grown for 5 days and maintained in a humidified incubator at 37° C. at an atmospheric pressure in 5% (v/v) carbon dioxide/air. After 5 days in culture, spheres>50 μm were counted using an eye-piece graticule, and the percentage of cells plated which formed spheres was calculated and is referred to as percent mammosphere formation, normalized to vehicle-alone treated controls. Mammosphere assays were performed in triplicate and repeated three times independently.

MCF7 cells [6] = assay: Cell cycle analysis (FACS); assay type: cell-based, human; settings: MCF7 2D-monolayers, 72 hours, 10 μM
Method: Cell Cycle Analysis: Performed on MCF7 cells treated with Doxycycline, Doxy-Myr or vehicle-alone. Briefly, after trypsinization, the re-suspended cells were incubated with 10 ng/ml of Hoechst solution (Thermo Fisher Scientific) for 40 min at 37° C. under dark conditions. Following a 40 min period, the cells were washed and re-suspended in PBS Ca/Mg for acquisition on the Attune NxT flow cytometer (Thermo Scientific). 10,000 events per condition were analyzed. Gated cells were manually-categorized into cell-cycle stages.

Which results are given for C[C@H]1c2cccc(O)c2C(=O)C2=C(O)[C@]3(O)C(=O)C(C(N)=O)=C(O)[C@@H](N(C)C)C3[C@@H](O)C21 (stereo partly drawn) [Doxycycline, (4S,5 S,6R,12aS)-4-(dimethylamino)-3,5,10,12,12a-pentahydroxy-6-methyl-1,11-dioxo-4a,5,5 a,6-tetrahydro-4H-tetracene-2-carboxamide]?
effect on cell viability (MCF7 cells [1]): no appreciable effects on cell viability; effect on cell viability [2]: no appreciable effects on cell viability; effect on proliferation (MCF7 cells [3]): did not inhibit the proliferation; antibiotic activity (growth inhibition) (E. coli (ATCC 25922)): potently and effectively inhibits the growth; antibiotic activity (growth inhibition) [4]: potently and effectively inhibits the growth; % Dead (chick embryo; 0.125 mM): 15.38%; Dead (chick embryo; 0.125 mM): 2; % Dead (chick embryo; 0.250 mM): 23.08%; Dead (chick embryo; 0.250 mM): 3; embryo toxicity (chick embryo; in vivo): little-to-no embryo toxicity; positive response rate [5]: ~90%

Which “inhibitory potency compared with Doxycycline” value (MCF7 CSCs) does the source give for C[C@H]1c2ccc(NC(=O)CCCCC[P+](c3ccccc3)(c3ccccc3)c3ccccc3)c(O)c2C(=O)C2=C(O)[C@]3(O)C(=O)C(C(N)=O)=C(O)[C@@H](N(C)C)C3[C@@H](O)C21.C[C@H]1c2ccc(NC(=O)CCCCC[P+](c3ccccc3)(c3ccccc3)c3ccccc3)c(O)c2C(=O)C2=C(O)[C@]3(O)C(=O)C(C(N)=O)=C(O)[C@@H](N(C)C)C3[C@@H](O)C21.O=C([O-])C(=O)[O-] (stereo partly shown) [Doxy-TPP] here?
The value was “not more potent that Doxycycline”.

What does the source list for CCCCCCCCCCCCCCCC(=O)Nc1ccc2c(c1O)C(=O)C1=C(O)[C@]3(O)C(=O)C(C(N)=O)=C(O)[C@@H](N(C)C)C3[C@@H](O)C1[C@H]2C (stereo partly drawn) [Doxy-Pal, (4S,5S,6R,12 aS)-4-(dimethylamino)-9-(hexadecanoylamino)-3,5,10,12,12a-pentahydroxy-6-methyl-1,11-dioxo-4a,5,5 a,6-tetrahydro-4H-tetracene-2-carboxamide]?
IC50 (MCF7 CSCs; Homo sapiens, MCF7, 120 h): 10.4 µM; antibiotic activity (growth inhibition) (E. coli (ATCC 25922)): did not show any antibiotic activity; antibiotic activity (growth inhibition) [4]: did not show any antibiotic activity

For CCCCCCCCCCCC(=O)Nc1ccc2c(c1O)C(=O)C1=C(O)[C@]3(O)C(=O)C(C(N)=O)=C(O)[C@@H](N(C)C)C3[C@@H](O)C1[C@H]2C (stereo partly drawn) [Doxy-Laur, (4S,5S,6R,12aS)-4-(dimethylamino)-9-(dodecanoylamino)-3,5,10,12,12a-pentahydroxy-6-methyl-1,11-dioxo-4a,5,5a,6-tetrahydro-4H-tetracene-2-carboxamide], which IC50 (MCF7 CSCs; Homo sapiens, MCF7, 120 h) is on record?
The IC50 was 5.8 µM.

What about the “antibiotic activity (growth inhibition)” value (E. coli (ATCC 25922)) of the same molecule?
Its value is “did not show any antibiotic activity”.

What about the “antibiotic activity (growth inhibition)” value [4] of the same molecule?
Its value is “did not show any antibiotic activity”.

For CCCCCCCCCCCCCC(=O)Nc1ccc2c(c1O)C(=O)C1=C(O)[C@]3(O)C(=O)C(C(N)=O)=C(O)[C@@H](N(C)C)C3[C@@H](O)C1[C@H]2C (stereo partly drawn) [Doxy-Myr, (4S,5S,6R,12aS)-4-(dimethylamino)-3,5,10,12,12a-pentahydroxy-6-methyl-1,11-dioxo-9-(tetradecanoylamino)-4a,5,5a,6-tetrahydro-4H-tetracene-2-carboxamide], which IC50 (MCF7 CSCs) is on record?
Its IC50 is 3.46 µM.

And the “effect on cell viability” value (MCF7 cells [1])?
The value was “no appreciable effects on cell viability”.

What about the “effect on cell viability” value [2] of the same molecule?
The value was “no appreciable effects on cell viability”.

What about the effect on proliferation (MCF7 cells [3]) of the same molecule?
The effect on proliferation was “did not inhibit the proliferation”.

And the “effect on cell cycle progression” value (MCF7 cells [6])?
The value was “did not have any significant effects on reducing cell cycle progression”.

What about the “antibiotic activity (growth inhibition)” value (E. coli (ATCC 25922)) of the same molecule?
Its value is “did not show any antibiotic activity”.

And the “antibiotic activity (growth inhibition)” value [4]?
Its value is “did not show any antibiotic activity”.

What about the “% Alive” value (chick embryo; 0.125 mM) of the same molecule?
Its value is 78.57%.

What about the “% Dead” value (chick embryo; 0.125 mM) of the same molecule?
The value was 21.43%.

What about the Alive (chick embryo; 0.125 mM) of the same molecule?
Its Alive is 11.

And the Dead (chick embryo; 0.125 mM)?
Its Dead is 3.

And the “% Alive” value (chick embryo; 0.250 mM)?
Its value is 92.31%.

And the “% Dead” value (chick embryo; 0.250 mM)?
Its value is 7.69%.

What about the Alive (chick embryo; 0.250 mM) of the same molecule?
The Alive was 12.

What about the Dead (chick embryo; 0.250 mM) of the same molecule?
The Dead was 1.

And the “embryo toxicity” value (chick embryo; CAM assay)?
The value was “little-to-no embryo toxicity”.

Reference: patent publication US20230174464A1, “MYRISTOYL DERIVATIVES OF 9-AMINO-DOXYCYCLINE FOR TARGETING CANCER STEM CELLS AND PREVENTING METASTASIS” (LUNELLA BIOTECH, INC., priority 2020, published 2023)
